From US12150945B2, “Liver disease” (Lipocine Inc., priority 2018, dated 2024)

Experiments:
Assay type in all cases: in vivo, human
SHBG = assay: Sex hormone binding globulin (SHBG) levels, trial of Example 1
Experimental: (§1) Oral testosterone therapy was evaluated in a multicenter, phase 3, randomized, open-label, active controlled, parallel-group study that included a 13-week efficacy phase and a 52-week safety phase. An active arm in which subjects received T gel was included for safety evaluation only.
Subjects were randomized in a 2:1 ratio to oral testosterone undecanoate or T gel. oral testosterone undecanoate subjects started at a dose of 225 mg TU (“testosterone undecanoate”) taken twice daily (total daily dose: 450 mg TU) every 12 hours. For optimal lymphatic absorption oral testosterone undecanoate must be administered with a meal. […]
(§2) Serum levels of T, TU, dihydrotestosterone (DHT), dihydrotestosterone undecanoate (DHTU), and estradiol (E2) were evaluated in oral testosterone undecanoate treated subjects. […] Sex hormone binding globulin (SHBG) was evaluated in data from all subjects. Serum T concentrations at screening were measured using chemiluminescence immunoassay kits. Hormone assays for pharmacokinetic assessment were analyzed at PPD Bioanalytical Laboratory in Richmond, Virginia Serum samples were analyzed for T, DHT, TU, DHTU, and E2 using a validated liquid chromatography-tandem mass spectrometry (LC-MS/MS) assay.

[1] = system: ALT, GGT, BUN, total cholesterol, LDL-C, triglyceride; assay: Liver Fat Study: normalization of labs (ALT, GGT, BUN, total cholesterol, LDL-C, triglyceride) at end of study (Example 6)
Experimental: This example is part of an ongoing Liver Fat Study which is an open-label, multi-center, single arm study evaluating LPCN 1144 treatment (e.g., androgen therapy, testosterone therapy, oral testosterone ester, or 225 mg testosterone undecanoate orally) in a cohort of 36 hypogonadal males (NCT03868059). Subjects with at least 10% baseline liver fat were evaluated which is indicative of subjects with NAFLD with the potential to have NASH. Interim results of seven of the nine subjects in the Liver Fat Study with baseline liver fat of at least 10% are presented as two subjects were unable to schedule an eight-week MRI-PDFF visit. Baseline mean liver fat of these seven subjects was 21.0%.
An MRI-PDFF study of 36 male hypogonadal subjects (having 2 morning testosterone levels of 300 ng/dL or less) was performed as part of an ongoing trial. Basic baseline labs including liver function tests (e.g., AST & ALT) and serum triglycerides were collected and analyzed. It was found by non-linear regression, that BMI (ALT, AST, serum Triglyceride) was associated with liver fat (P<0.006). It was found by non-linear regression, that serum triglyceride levels (obesity, hypertension, type 2 diabetes) were associated with liver fat (P<0.006).

[2] = system: Lipoprotein-associated phospholipase A2; assay: Lipoprotein-associated phospholipase A2, change from baseline to end of study, trial of Example 1
Experimental: as §1
(§3) Subjects were randomized in a 2:1 ratio to oral testosterone undecanoate or T gel. oral testosterone undecanoate subjects started at a dose of 225 mg TU (“testosterone undecanoate”) taken twice daily (total daily dose: 450 mg TU) every 12 hours. For optimal lymphatic absorption oral testosterone undecanoate must be administered with a meal. Therefore, subjects were instructed to administer oral testosterone undecanoate after a standard meal (defined as a meal consisting of 800 to 1400 calories with approximately 20% to 35% fat content). The oral testosterone undecanoate dose was titrated at Weeks 4 and 8, if necessary, based on results of intensive 24-hour PK blood sampling obtained at Weeks 3 and 7, respectively. Oral testosterone undecanoate subjects stayed at the clinic overnight during each intensive PK blood sampling period. […] Oral testosterone undecanoate dose levels permitted during the study were 150 mg BID, 225 mg BID, and 300 mg BID. Data collected during an intensive 24-hour PK sampling overnight stay at Week 13 were used for efficacy analysis; dose was not adjusted at this visit. Additional outpatient visits were conducted at Weeks 26, 39, and 52 during which single blood draws were performed 3 to 6 hours post morning dose. Dose was not adjusted during these visits.
T gel (ANDROGEL®) (testosterone gel for topical use) 1.62%, AbbVie, Chicago, Illinois, US) was supplied in non-aerosol, metered dose pumps that deliver 20.25 mg T per complete pump actuation. T gel was dosed according to product labeling. Subjects receiving T gel completed outpatient visits at Weeks 2 and 4 with single blood draws to determine titration and at Weeks 3 and 5 for dose changes, if necessary. They also completed an outpatient visit at Week 7 for safety assessments and at Weeks 13, 26, 39 and 52 during which single blood samples were obtained 3 to 6 hours after the morning dose. Dose was not adjusted during these visits. Overnight clinic stays were not required for T gel subjects.
Safety endpoints included adverse events (AEs), physical examination findings, vital signs, electrocardiograms (ECGs), and clinical laboratory tests. AEs were classified using the Medical Dictionary for Regulatory Activities (Version 16.1). Safety endpoints were summarized using descriptive statistics. Lab parameters were evaluated using two sample t-tests comparing change from baseline to end of study (EOS) across oral testosterone undecanoate and T gel subjects with p-values <0.05 considered statistically significant.

C-Reactive Protein = assay: C-Reactive Protein, change from baseline to end of study, trial of Example 1; details: Safety Set; subjects with CRP values > 95.23 excluded
[3] = Serum testosterone pharmacokinetics (24-hour PK sampling, LC-MS/MS), phase 3 oral testosterone undecanoate trial of Example 1; details: for Average serum T levels: single blood draw 3 to 6 hours post morning dose
Experimental: as §1
Males 18 through 80 years old with a documented diagnosis of primary hypogonadism (congenital or acquired) or hypogonadotropic hypogonadism (congenital or acquired) and with morning serum T<300 ng/dL based on 2 consecutive blood samples obtained between 0600 and 1000 on 2 separate days at approximately the same time were eligible to participate. Subjects were either naïve to T therapy or completed an adequate washout of T therapy (eg, 12 weeks after intramuscular androgen injections excluding TU injections which required a longer waiting period; 4 weeks after topical or buccal androgens; and 3 weeks after oral androgens). Exclusion criteria included abnormal prostate digital rectal examination with palpable nodule(s) or International Prostate Symptom Score (IPSS)>19 points; body mass index ≥38 kg/m^2, clinically significant laboratory values (baseline hemoglobin <11.5 or >16.5 g/dL, hematocrit <35% or >54%, serum transaminases >2.5 times upper limit of normal, serum bilirubin >2.0 mg/dL, creatinine >2.0 mg/dL, prostate specific antigen [PSA]>2 ng/mL, prolactin >17.7 ng/mL); history of seizures or convulsions; any surgical procedure that might interfere with gastrointestinal motility, pH, or absorption; stroke or myocardial infarction within 5 years; current or suspected prostate or breast cancer; severe, untreated, obstructive sleep apnea; long QT syndrome or unexplained sudden death in first-degree relative; concurrent medication use that could impact absorption, distribution, metabolism, or excretion of TU or place subject at risk for treatment with T; and dose changes of antihypertensive, lipid-lowering, or hypoglycemic agents within previous 3 months.
as §3, §2

[4] = 4th quartile patients based on lab parameter level, 1 Year Oral TU Study

SMILES: CCCCCCCCCCC(=O)O[C@H]1CC[C@H]2[C@@H]3CCC4=CC(=O)CC[C@]4(C)[C@H]3CC[C@]12C [oral testosterone undecanoate, testosterone undecanoate]
- SHBG change from baseline (SHBG; Week 13 (largest decrease)): -11.75 nmol/L
- Mean SHBG levels (SHBG; each post-baseline visit): decreased
- normalization rate for LDL-C [1]: 50%
- normalization rate for total cholesterol [1]: 29%
- normalization rate for triglyceride [1]: 21%
- subjects with BUN normalization [1]: 60%
- subjects with above normal GGT levels who ended the study with normal GGT levels [1]: 0%
- subjects with above normal ALT levels who ended the study with normal ALT levels ([1]; mean baseline ALT 48.7): 100%
- Lp-PLA2, mean change from baseline [2, 4]: -47.8 ng/mL
- Lp-PLA2, mean change from baseline, % [2, 4]: −17.1%
- Lp-PLA2, mean (SD) change from baseline to end of study ([2]; Safety Set, baseline to end of study): −9.6 (42.07) ng/mL
- Lipoprotein-associated phospholipase A2, baseline to EOS ([2]; difference in change between groups not significant): decreased significantly
- C-Reactive Protein, mean (SD) change from baseline to end of study (C-Reactive Protein): −4.68 (30.94) nmol/L
- serum T Cavg0-24 h ([3]; Week 13): 446 ng/dL
- serum T Cmax ([3]; Week 13): 1134 ng/dL
- subjects with serum T Cavg0-24 h between 300 and 1140 ng/dL ([3]; Week 13, 95% lower bound CI: 81.7%, met predefined efficacy criteria): 87.4%
- Average serum T levels ([3]; Week 26): 481 ± 371 ng/dL
- Average serum T levels ([3]; Week 39): 543 ± 438 ng/dL
- Average serum T levels ([3]; Week 52): 538 ± 545 ng/dL
